Data reported in publication PMC4656118 (Journal of biomolecular screening, 2014).

Columns and labels:
[1] = tested on: salmon sperm DNA; assay: Counterscreen to detect DNA intercalators; assay type: binding; conditions: for Competition with acridine orange for DNA intercalation (acridine orange mP values): assay validation, increasing concentration, monensin up to 1uM; for DNA intercalation (competition with acridine orange): pilot screen hits at increasing concentrations
[2] = biological target: N-LANA peptide binding to nucleosomes (histones H2A/H2B) (Gallus gallus, UniProt P02263+P0C1H3); assay: biochemical; parameters: species or system chicken; conditions: for Scored positive for inhibition in HTS at ICCB-L/NSRB: 49,810 small molecules screened in duplicate, Z score; for Identified as hit in pilot screen (Z score < −2 for both replicates): pilot screen of known bioactives
[3] = biological target: GST LANA1-23 binding to nucleosomes (Gallus gallus, UniProt P02263+P0C1H3); assay: ELISA, inhibition of GST LANA1-23 binding to nucleosomes; parameters: species or system chicken; conditions: increasing concentrations of competitor or compound

Compound | Competition with acridine orange for DNA intercalation (acridine orange mP values) [1] | DNA intercalation (competition with acridine orange) [1] | IC50 [2] [µM] | Scored positive for inhibition in HTS at ICCB-L/NSRB [2] | Identified as hit in pilot screen (Z score < −2 for both replicates) [2] | Inhibition of GST LANA1-23 binding to nucleosomes by ELISA [3] | Confirmation of inhibitory activity by FP ([2]; pilot screen hits retested at increasing concentrations) | Inhibition of LANA 1-23 binding to nucleosomes ([2]; negative control for HTS)
CC[N+](C)(CC)CCC[n+]1c(-c2ccccc2)c2cc(N)ccc2c2ccc(N)cc21.[I-].[I-] [PI, propidium iodide] | reduced acridine orange mP values |  |  |  |  |  |  | 
O=C1c2c(O)ccc(O)c2C(=O)c2c(NCCNCCO)ccc(NCCNCCO)c21 [MTX, mitoxantrone] | reduced acridine orange mP values | scored positive for DNA intercalation | < 25 | scored positive | identified | inhibitory activity |  | 
CC[C@@]1(O)C(=O)OCc2c1cc1n(c2=O)Cc2cc3cc(O)ccc3nc2-1 [10-HCT, 10-hydroxycamptothecin] |  | inconsistently competed |  |  | identified |  | could not be confirmed | 
CC[C@@]1([C@@H]2O[C@@H]([C@H]3O[C@@](O)(CO)[C@H](C)C[C@@H]3C)C[C@@H]2C)CC[C@H]([C@]2(C)CC[C@]3(C[C@H](O)[C@@H](C)[C@@H]([C@@H](C)[C@@H](OC)[C@H](C)C(=O)O)O3)O2)O1 [Monensin, monensin] | negligible effect |  |  |  |  |  |  | did not inhibit
CC[n+]1c(-c2ccccc2)c2cc(N)ccc2c2ccc(N)cc21 [EtBr, ethidium bromide] | reduced acridine orange mP values |  |  |  |  |  |  | 
COc1cccc2c1C(=O)c1c(O)c3c(c(O)c1C2=O)C[C@@](O)(C(=O)CO)C[C@@H]3O[C@H]1C[C@H](N)[C@H](O)[C@H](C)O1 [doxorubicin] |  | scored positive for DNA intercalation | < 25 | scored positive | identified | inhibitory activity |  | 
COc1cccc2c1C(=O)c1c(O)c3c(c(O)c1C2=O)C[C@@](O)(C(C)=O)C[C@@H]3O[C@H]1C[C@H](N)[C@H](O)[C@H](C)O1 [daunorubicin] |  | scored positive for DNA intercalation |  | scored positive | identified |  |  | 
